From patent US11340226B2, “Squalene epoxidase in the diagnosis and treatment of non-alcoholic fatty liver diseases” (priority 2018, dated 2022)

How the values were obtained:
HKCI2 [1] = assay: Colony formation assay; assay type: cell-based, human; conditions: 25 μM to 50 μM
Protocol: (§1) 2 NAFLD-HCC cell lines (HKCI2, HKCI10) and one liver cancer cell line HepG2 were used in this study. Cell lines were maintained in RPMI-1640 or DMEM medium (Gibco BRL, Rockville, Md.) with 10% fetal bovine serum.
(§2) For cell colony formation assay, liver cancer cells (1000/well) were plated in 6-well plates. Different dose of Terbinafine were added to these cells at the second day. After culturing for 5-7 days, cells were fixed with 70% ethanol and stained with 0.5% crystal violet solution. Colonies with more than 50 cells per colony were counted. All experiments were conducted three times in triplicates.

HepG2 [2] = assay: Colony formation assay; assay type: cell-based, human; conditions: 25 μM to 50 μM
Protocol: as §1, §2

[3] = tested on: Sqle tg mice injected with DEN and fed with a HFHC diet; assay type: in vivo
Protocol: Sqle tg mice injected with DEN (10 days of age) and fed with a HFHC diet (6 weeks of age). At 20 weeks of age, the mice will be randomized into two group and treated with either vehicle or Terbinafine (80 mg/kg/d, oral gavage). After 8 weeks terbinafine treatment, mice will be sacrificed to examine the therapeutic effect of Terbinafine. […]
The serum cholesterol, TG, ALT and AST level were detected by the Catalyst One Chemistry Analyzer according to the manufacturer's instructions (IDEXX, USA). Thirty microliters of serum from wild-type or Sqle tg mice were diluted to 90 μl by physiological saline buffer. The diluted samples and specific slides (cholesterol, ALT and AST) were then loaded into the analyzer for automatic analysis. […]

SQLE and PCNA expression = assay: Western blot of SQLE and PCNA expression in treated cells; assay type: cell-based
[4] = tested on: Sqle tg mice fed with a HFHC diet; assay: NASH development in HFHC-fed Sqle tg mice; assay type: in vivo
Protocol: (§3) WT and Sqle Tg mice were fed with normal diet (18% fat, 58% carbohydrate, 24% protein, 0% cholesterol) or high fat high cholesterol (HFHC: 43.7% fat, 36.6% carbohydrate, 19.7% protein, 0.203% cholesterol) diets (Specialty Feeds, Glen Forrest, Wash.) ad libitum for different time point to generate spontaneous NAFLD model and diet-induced NASH model. 2 mg tissues were harvested, and liver cholesterol levels were detected by Cholesterol/Cholesteryl Ester Quantification kit (ab65359, Abcam) according to manufacturer's instructions. All experiments were conducted three times in triplicates. Results were shown as the means±SEM. 100 mg tissues were harvested, and liver triglyceride levels were detected by triglyceride Quantification kit (ab65336, Abcam) according to manufacturer's instructions. All experiments were conducted three times in triplicates. Results were shown as the means±SEM. Sqle tg mice and their wild-type littermates (WT) were fed a high fat high cholesterol diet at the age of 6 weeks. At 17 weeks of age (Sqle tg mice) or 24 weeks of age (WT mice), the mice will be randomized into two group and treated with either vehicle or Terbinafine (80 mg/kg/d, oral gavage). After 8 (WT mice) or 9 weeks (Sqle tg mice) terbinafine treatment, mice will be sacrificed to examine the therapeutic effect of Terbinafine. Assessment of NAFLD: Liver histology were evaluated at sacrifice using H&E staining. Assessment of inflammation: Liver damage were determined using serum ALT and AST. PCR and cytokine arrays were used to evaluate expression of pro-inflammatory cytokines. Assessment of metabolic syndrome: Insulin tolerance tests and glucose tolerance tests will be determined as described above. 20 mg tissues were harvested, and liver […] Quantification kit (ab65341, Abcam) according to manufacturer's instructions. All experiments were conducted three times in triplicates. Results were shown as the means±SEM. The serum cholesterol, TG, ALT and AST level were detected by the Catalyst One Chemistry Analyzer according to the manufacturer's instructions (IDEXX, USA). Thirty microliters of serum from wild-type or Sqle tg mice were diluted to 90 μl by physiological saline buffer. The diluted samples and specific slides (cholesterol, ALT and AST) were then loaded into the analyzer for automatic analysis. For the glucose tolerance test, mice were fasted overnight by transferring mice to clean cages with no food or feces in upper or bottom of cage. Mice were then injected intraperitoneally with 0.75 U insulin per kg body weight (ITT) or 1 g glucose per kg body weight (GTT) in water. Blood from the tail vein was obtained before the injection and at 30, 60 and 90 min after the injection for determination of blood glucose using Glucose Meter.

HKCI10 [5] = assay: Colony formation assay; assay type: cell-based; conditions: 25 μM to 50 μM
Protocol: as §1, §2

[6] = tested on: orthotopic HKCI2 xenografts; assay: Orthotopic HKCI2 xenograft (human NAFLD-HCC) nude mice model; assay type: in vivo, Balb/c nude mice
Protocol: An orthotopic human NAFLD-HCC mouse model was established using HKCI2 cells. HKCI2 cells (1×10^7 cells in 0.1 ml PBS) were injected subcutaneously into the left dorsal flank of 4-week-old male Balb/c nude mice. Subcutaneous tumors were harvested once they reached about 10 mm^3 and cut into 1.0 mm^3 pieces. One piece of a tumor was implanted into the left liver lobe in a separate group of nude mice (4-week-old). Four weeks after implantation, these mice were divided into vehicle group (PBS, p.o.) and terbinafine group (80 mg/kg, p.o.). Eight weeks post-implantation, the mice were sacrificed and examined. 10^6 cells or 2 mg tissues were harvested, and cholesterol/cholesteryl ester levels were detected by Cholesterol/Cholesteryl Ester Quantification kit (ab65359, Abcam) according to manufacturer's instructions. All experiments were conducted three times in triplicates. Results were shown as the means±SEM.

HFHC-fed WT mice = assay: HFHC-induced NAFLD in WT mice; assay type: in vivo
Text: as §3, with “model.” for “model. 2 mg tissues were harvested, and liver cholesterol levels were detected by Cholesterol/Cholesteryl Ester Quantification kit (ab65359, Abcam) according to manufacturer's instructions. All experiments were conducted three times in triplicates. Results were shown as the means±SEM. 100 mg tissues were harvested, and liver triglyceride levels were detected by triglyceride Quantification kit (ab65336, Abcam) according to manufacturer's instructions. All experiments were conducted three times in triplicates. Results were shown as the means±SEM.”, “analysis.” for “analysis. For the glucose tolerance test, mice were fasted overnight by transferring mice to clean cages with no food or feces in upper or bottom of cage. Mice were then injected intraperitoneally with 0.75 U insulin per kg body weight (ITT) or 1 g glucose per kg body weight (GTT) in water. Blood from the tail vein was obtained before the injection and at 30, 60 and 90 min after the injection for determination of blood glucose using Glucose Meter.”

HKCI2 [7] = assay: Cell growth, cell viability (MTS) assay; assay type: cell-based, human; conditions: 25 μM to 50 μM
Protocol: as §1
(§4) Cell viability was determined by the 3-(4,5-dimethylthiazol-2-yl)-5-(3-carboxyme-thoxyphenyl)-2-(4-sulfophenyl)-2H-tetrazolium (MTS) assay (Promega, Madison, Wis.).

HepG2 [8] = assay: Cell growth, cell viability (MTS) assay; assay type: cell-based, human; conditions: 25 μM to 50 μM
Protocol: as §1, §4

HKCI10 [9] = assay: Cell growth, cell viability (MTS) assay; assay type: cell-based; conditions: 25 μM to 50 μM
Protocol: as §1, §4

HepG2 xenografts = assay: Subcutaneous HepG2 xenograft nude mice model; assay type: in vivo, Balb/c nude mice
Protocol: A xenograft human liver cancer mouse model was established using HepG2 cells. HepG2 cells (1×10^7 cells in 0.1 ml PBS) were injected subcutaneously into the left dorsal flank of 4-week-old male Balb/c nude mice. Once the subcutaneous tumors reached about 100 mm^3, these mice were divided into vehicle group (PBS, p.o.) and terbinafine group (80 mg/kg, p.o.) randomly. Tumor diameter was measured every days for 10 days. For survival analysis, tumor diameter was measured every two days for 40 days. Tumor volume (mm^3) was estimated by measuring the longest and shortest diameter of the tumor and calculating as follows: volume=(shortest diameter)^2×(longest diameter)×0.5. Care of animals and all experimental procedures were approved by the Animal Ethics Committee of the Chinese University of Hong Kong. After more than 2 weeks, the mice were sacrificed, and the tumors were weighed and fixed in formalin for histological analysis. […]
(§5) 10^6 cells or 2 mg tissues were harvested, and cholesterol/cholesteryl ester levels were detected by Cholesterol/Cholesteryl Ester Quantification kit (ab65359, Abcam) according to manufacturer's instructions. All experiments were conducted three times in triplicates. Results were shown as the means±SEM.

HCC cell lines = assay: Cholesterol/cholesteryl ester levels in cells; assay type: cell-based
Protocol: as §5

[10] = DEN-injected HFHC-fed Sqle tg mice
[11] = livers of Sqle tg mice, western blot
[12] = 80 mg/kg/d oral gavage, 9 weeks
[13] = 80 mg/kg/d oral gavage, 8 weeks
[14] = subcutaneous HepG2 xenografts, 80 mg/kg/d, p.o.

## CN(C/C=C/C#CC(C)(C)C)Cc1cccc2ccccc12 [terbinafine]
HKCI2 [1]
  cell lines proliferation by colony formation assay: markedly suppressed
HepG2 [2]
  cell lines proliferation by colony formation assay: markedly suppressed
[3]; 80 mg/kg/d oral gavage, 8 weeks, P<0.01
  tumor number: significantly reduced
[3]; 80 mg/kg/d oral gavage, 8 weeks, vs 8/9 mice in PBS, P<0.05
  tumor incidence: 4/9
[3]; [10]
  NADP^+/NADPH ratio: reducing
  liver cholesterol levels: decreased
  liver/body weight ratio: decreased
  serum cholesterol levels: decreased
[3]; [11]
  Dnmt3a protein expression: inhibited
  Pten expression: restored
  Sqle protein expression: inhibited
[3]; vs vehicle
  HCC tumorigenesis and cell proliferation (H&E and Ki-67 staining of livers): reduction
SQLE and PCNA expression
  PCNA expression: suppressed
  SQLE expression: suppressed
[4]
  insulin sensitivity (ITTs): markedly improved
  liver cholesterol level: significantly decreased
  liver free fatty acid accumulation: significantly decreased
  liver triglyceride: significantly decreased
  serum ALT level: significantly decreased
  serum AST level: significantly decreased
  serum triglyceride: significantly decreased
[4]; [12]
  body weight gain: significantly attenuated
  liver weight: significantly attenuated
  liver/body weight ratio: significantly attenuated
[4]; qPCR
  liver inflammation and fibrosis level (mRNA expression of inflammation and fibrosis mediators): reduced
[4]; vs PBS control
  steatohepatitis (H&E staining of livers): reduction
HKCI10 [5]
  cell lines proliferation by colony formation assay: markedly suppressed
[6]; 80 mg/kg, p.o., both in terms of tumor size or tumor weight, P<0.01
  suppression of growth of orthotopic HKCI2 xenografts: > 85%
[6]; HKCI2 xenografts
  tumor cholesteryl ester levels: suppressed
  tumor free cholesterol levels: suppressed
HFHC-fed WT mice
  HFHC-induced serum cholesterol: attenuated
  liver steatosis (H&E staining and free fatty acid assay): reduction
  serum ALT level: attenuated
  serum AST level: attenuated
  serum triglyceride: attenuated
HFHC-fed WT mice; [13]
  body weight: significantly decrease
  liver weight: significantly decrease
HKCI2 [7]
  cell lines proliferation by cell growth assay: markedly suppressed
HepG2 [8]
  cell lines proliferation by cell growth assay: markedly suppressed
HKCI10 [9]
  cell lines proliferation by cell growth assay: markedly suppressed
HepG2 xenografts; 80 mg/kg, p.o., P<0.01
  suppression of growth of subcutaneous HepG2 xenografts: 77.8%
HepG2 xenografts; HepG2 xenografts
  tumor cholesteryl ester levels: suppressed
  tumor free cholesterol levels: suppressed
HepG2 xenografts; [14]
  tumor volume: significant reductions
  tumor weight: significant reductions
HepG2 xenografts; tumor size 400 mm^3 as cutoff, P<0.01
  overall survival of mice harboring HepG2 xenografts: significantly prolonged
HCC cell lines
  cholesteryl ester levels: suppressed
  free cholesterol levels: suppressed
